Experimental data as given in patent US4714774A, “Benzoic acid derivatives and their production” (Takeda Chemical Industries, Ltd., priority 1984, dated 1987).

Key:
[1] = test system: bronchoconstriction in guinea pigs due to an intravenous administration of synthetic leukotriene D4 (LTD4); assay: Inhibition of LTD4-induced bronchoconstriction in guinea pigs, oral dosing (Konzett-Rossler method); format: in vivo, guinea pig (Hartley strain); details: Cavia porcellus, 1 h, guinea pig, p.o. one hour before LTD4 10 μg/kg i.v., inhibition of overflow volume 30 seconds after LTD4, read-out: ID50 (p.o.) (50% inhibitory dose)
Method: Guinea pigs of Hartley strain, both male and female, with body weights about 400 g were assigned to groups of 6 to 10 individuals, and the bronchoconstriction due to LTD4 was measured according to the method of Konzett-Rossler [Konzett, H. and Rossler, R.: Naunyn-Schmiedebergs Archiv fur Experimentelle Pathologie und Pharmakologie 195, 71-74 (1940)]. Each guinea pig was fixed in supine position under urethane anesthesia (1.5 g/kg, intraperitoneal) and the trachea was incised and connected to an artificial respiration apparatus, Rodent Respirator Model 680 [Harvard Apparatus Company, U.S.A.] via a cannula. The branch tube of this tracheal cannula was connected to Bronchospasm Transducer Model 7020 [Ugobasil Biological Researach Apparatus, Italy]. Under the conditions of 4 to 7 ml of air per stroke, 70 strokes per minute and a lung loading pressure of 10 cmH2 O, the volume of overflowing air was recorded on Rectigraph-8S (San-ei Sokki Co. Ltd., Japan) via a transducer. After administration of gallamine.triethiodide (1 mg/kg, i.v.), a solution of LTD4 in physiological saline (10 μg/kg) was intravenously administered and the bronchoconstriction elicited thereby was recorded for 15 minutes. […]
*^1 ID50 (50% inhibitory dose): Each value was calculated from […]

mice = assay: Acute oral toxicity in mice; format: in vivo, mouse (Jcl:ICR strain); details: male mice
Method: Five 5-week-old male mice per group, of Jcl:ICR strain, weighing about 30 g each, were used. Compound (I')-1 was suspended in a 5% solution of gum arabic and administered orally at the level of 0.2 ml per 10 grams body weight.

CCCc1c(OCCCOc2ccc(C(=O)O)cc2Br)ccc(C(C)=O)c1OC(C)=O [Compound (I')-1, 4-[3-(3-acetoxy-4-acetyl-2-propylphenoxy)propoxy]-3-bromobenzoic acid]
ED50 [1]: 47 µmol/kg | autopsy findings (mice; oral 500 mg/kg, autopsy after 7 days): did not reveal any abnormalities | symptoms attributable to the compound (mice; single oral dose 500 mg/kg): no symptoms that could be attributable to compound (I')-1
